The test system of assay [1] is MDRAB clinical strain AF12. The assay is classed as cell-based, Acinetobacter baumannii. The following applies: strain AF12, 24 h 37 °C.
Assay [2] concerns MDRAB clinical strain J49. It is filed as cell-based, Acinetobacter baumannii. The following applies: strain J49, 24 h 37 °C.
Description: (§2) MBC were determined by extending the MIC procedure in sterilized 96-well polypropylene microtiter plates according to the broth microdilution guidelines of the Clinical and Laboratory Standards Institute with some modification[47]. […] In addition, 10 µL was drawn from each well with no visible turbidity onto LB agar plates and incubated for 24 h at 37 °C. The lowest concentration showing no visible growth on agar subculture was used as the MBC value. All experiments were performed in triplicate.
For assay [3], the system named is MDRAB clinical strain Y92. It is filed as cell-based, Acinetobacter baumannii. As to conditions: strain Y92, 24 h 37 °C.
The subject of assay [4] is MDRAB clinical strain U80. The assay is classed as cell-based, Acinetobacter baumannii. The following applies: strain U80, 24 h 37 °C.
The subject of assay [5] is MDRAB clinical strain AK29. The assay is classed as cell-based, Acinetobacter baumannii. The following applies: strain AK29, 24 h 37 °C.
The subject of assay [6] is MDRAB clinical strain AZ93. The assay is classed as cell-based, Acinetobacter baumannii. As to conditions: strain AZ93, 24 h 37 °C.
Assay [7] has as its system MDRAB clinical strain AE5. The assay is classed as cell-based, Acinetobacter baumannii. The following applies: strain AE5, 24 h 37 °C.
Description: as §2
Assay [8] relates to Acinetobacter baumannii 17,978. The assay is classed as cell-based.
In assay [9] the test system is Acinetobacter baumannii 19,606. The assay is classed as cell-based.
Assay [10] concerns MDRAB clinical strain O59. The assay is classed as cell-based, Acinetobacter baumannii. As to conditions: strain O59, 24 h 37 °C.
In assay [11] the test system is MDRAB clinical strain AS40. It is filed as cell-based, Acinetobacter baumannii. As to conditions: strain AS40, 24 h 37 °C.
The test system of assay [12] is MDRAB clinical strain D29. It is filed as cell-based, Acinetobacter baumannii. The following applies: strain D29, 24 h 37 °C.
Assay [13] has as its system MDRAB clinical strain AE6. It is filed as cell-based, Acinetobacter baumannii. The following applies: strain AE6, 24 h 37 °C.
Assay [14] relates to MDRAB clinical strain W11. The assay is classed as cell-based, Acinetobacter baumannii. As to conditions: strain W11, 24 h 37 °C.
Description: as §2
Assay [15] has as its system MDRAB clinical strain AL87. It is filed as cell-based, Acinetobacter baumannii. The following applies: strain AL87, 24 h 37 °C.
Description: as §2
Assay [16] concerns MDRAB clinical strain L87. The assay is classed as cell-based, Acinetobacter baumannii. As to conditions: strain L87, 24 h 37 °C.
Description: as §2
Assay [17] relates to MDRAB clinical strain AN10. It is filed as cell-based, Acinetobacter baumannii. As to conditions: strain AN10, 24 h 37 °C.
The test system of assay [18] is MDRAB clinical strain AF11. The assay is classed as cell-based, Acinetobacter baumannii. The following applies: strain AF11, 24 h 37 °C.
The subject of assay [19] is MDRAB clinical strain K2. It is filed as cell-based, Acinetobacter baumannii. The following applies: strain K2, 24 h 37 °C.
Description: as §2
For assay [20], the system named is MDRAB clinical strain AG51. It is filed as cell-based, Acinetobacter baumannii. As to conditions: strain AG51, 24 h 37 °C.
Assay [21] has as its system MDRAB clinical strain U95. It is filed as cell-based, Acinetobacter baumannii. As to conditions: strain U95, 24 h 37 °C.
Assay [22] deals with MDRAB clinical strain AO80. The assay is classed as cell-based, Acinetobacter baumannii. The following applies: strain AO80, 24 h 37 °C.
Description: as §2
Assay [23] has as its system MDRAB clinical strain AK61. The assay is classed as cell-based, Acinetobacter baumannii. The following applies: strain AK61, 24 h 37 °C.
Description: as §2
Assay [24] has as its system MDRAB clinical strain AF93. The assay is classed as cell-based, Acinetobacter baumannii. As to conditions: strain AF93, 24 h 37 °C.
The subject of assay [25] is MDRAB strain MO91. It is filed as cell-based, Acinetobacter baumannii. As to conditions: 24 h. As for the experimental part: (§1) All AMPs and TP4 derivatives used in this study were synthesized by Kelowna International Scientific Inc. (Taipei City, Taiwan) with more than 95% purity, and their molecular weights were verified by mass spectrum analysis. MBC were determined by extending the MIC procedure in sterilized 96-well polypropylene microtiter plates according to the broth microdilution guidelines of the Clinical and Laboratory Standards Institute with some modification. Briefly, 5 × 10^5 CFU/mL of bacteria were inoculated in LB medium containing AMPs or antibiotic at final concentrations ranging from 512 to 1 μg/mL (from serial twofold dilutions). After incubation for 24 h at 37 °C, the lowest concentration showing no visible growth was used as the MIC value. In addition, 10 µL was drawn from each well with no visible turbidity onto LB agar plates and incubated for 24 h at 37 °C. The lowest concentration showing no visible growth on agar subculture was used as the MBC value. All experiments were performed in triplicate.

The subject of assay [26] is MDRAB strain BF50. The assay is classed as cell-based, Acinetobacter baumannii. As to conditions: 24 h. How it is done:
as §1

The mark [27] stands for this setting: 10 µL from wells without turbidity onto LB agar, 24 h at 37 °C, triplicate.

Read-outs that look alike come from different tables or passages of the source. No end group written: not given here.

With “GLFGKLIKKFGRKAISYAVKKARGKH [Latarcin 2a]”, the MIC in [1] (broth microdilution, LB) was determined as 8 µg/mL; in assay [2] (broth microdilution, LB), 64 µg/mL; in assay [3] (broth microdilution, LB), 8 µg/mL; in assay [4] (broth microdilution, LB), 16 µg/mL; in assay [5] (broth microdilution, LB), 8 µg/mL; in assay [6] (broth microdilution, LB) it was 8 µg/mL. In addition, the MIC in [7] (broth microdilution, LB) was 8 µg/mL; in assay [8] (broth microdilution (CLSI, modified), LB medium, 5 × 10^5 CFU/mL, 24 h at 37 °C, lowest concentration with no visible growth, triplicate) it was 16 µg/mL; in [9] (broth microdilution (CLSI, modified), LB medium, 5 × 10^5 CFU/mL, 24 h at 37 °C, triplicate), 16 µg/mL; in assay [10] (broth microdilution, LB), 16 µg/mL; in [11] (broth microdilution, LB) it was 8 µg/mL; in assay [12] (broth microdilution, LB) it was 8 µg/mL. Further, the MIC in assay [13] (broth microdilution, LB) was found to be 8 µg/mL; in [14] (broth microdilution, LB) it was 8 µg/mL; in assay [15] (broth microdilution, LB), 4 µg/mL; in assay [16] (broth microdilution, LB) it was 16 µg/mL; in assay [17] (broth microdilution, LB), 4 µg/mL; in assay [18] (broth microdilution, LB) it was 8 µg/mL. In addition, the MIC in assay [19] (broth microdilution, LB) turned out to be 64 µg/mL; in [20] (broth microdilution, LB), 4 µg/mL; in [21] (broth microdilution, LB), 16 µg/mL; in assay [22] (broth microdilution, LB) it was 8 µg/mL; in [23] (broth microdilution, LB) it was 8 µg/mL; in assay [24] (broth microdilution, LB) it was 8 µg/mL. Also, the MBC is 8 µg/mL in assay [1] (subculture on LB agar); 64 µg/mL in [2] (subculture on LB agar); 8 µg/mL in assay [3] (subculture on LB agar); 16 µg/mL in [4] (subculture on LB agar); 8 µg/mL in assay [5] (subculture on LB agar); 8 µg/mL in assay [6] (subculture on LB agar). In addition, the MBC turned out to be 8 µg/mL in assay [7] (subculture on LB agar); 16 µg/mL in assay [8] (setting [27]); 16 µg/mL in assay [9] (setting [27]); 16 µg/mL in assay [10] (subculture on LB agar); 8 µg/mL in [11] (subculture on LB agar); 16 µg/mL in assay [12] (subculture on LB agar). The MBC is 8 µg/mL in assay [13] (subculture on LB agar); 8 µg/mL in assay [14] (subculture on LB agar); 4 µg/mL in assay [15] (subculture on LB agar); 16 µg/mL in assay [16] (subculture on LB agar); 4 µg/mL in assay [17] (subculture on LB agar); 8 µg/mL in [18] (subculture on LB agar). For the same sequence, the MBC was 64 µg/mL in assay [19] (subculture on LB agar); 4 µg/mL in assay [20] (subculture on LB agar); 16 µg/mL in assay [21] (subculture on LB agar); 8 µg/mL in assay [22] (subculture on LB agar); 8 µg/mL in [23] (subculture on LB agar); 8 µg/mL in assay [24] (subculture on LB agar).

Consider “FIHHIIGGLFSAGKAAHRLIRRRRR [Peptide I16A]”, for which the MBC in [25] was 32 µg/mL; in assay [26] it was 16 µg/mL; in assay [8] (17,978, 24 h) it was 32 µg/mL; in assay [9] (19,606, 24 h) it was 32 µg/mL. Besides, the MIC in [25] amounted to 16 µg/mL; in assay [26], 16 µg/mL; in assay [8] (17,978, 24 h), 16 µg/mL; in assay [9] (19,606, 24 h) it was 32 µg/mL.

For the sequence FIHHIIGGLFSAGKAIHSLIHRRRR [R18S/R21H], the MBC was 32 µg/mL in assay [25]; 64 µg/mL in assay [26]; 32 µg/mL in assay [8] (17,978, 24 h); 32 µg/mL in assay [9] (19,606, 24 h). Moreover, the MIC in assay [25] was found to be 32 µg/mL; in assay [26], 16 µg/mL; in assay [8] (17,978, 24 h) it was 16 µg/mL; in assay [9] (19,606, 24 h), 32 µg/mL.

FIHHAAGGLFSAGKAIHRLIRRRRR [I5A/I6A]: the MBC was 128 µg/mL in assay [25]; 64 µg/mL in assay [26]; 32 µg/mL in [8] (17,978, 24 h); 64 µg/mL in [9] (19,606, 24 h). Besides, the MIC in assay [25] is 64 µg/mL; in assay [26], 32 µg/mL; in assay [8] (17,978, 24 h) it was 32 µg/mL; in [9] (19,606, 24 h), 64 µg/mL.

What is called MIC is the smallest concentration in the dilution series that meets the test's criterion for growth inhibition. Low readings indicate inhibition by little substance, high ones a need for much substance. Broadly, the MBC is the smallest concentration meeting the test's criterion for killing. A high value points to weaker bactericidal potency.

The record behind these values is article PMC8016998, “Identification of potential therapeutic antimicrobial peptides against Acinetobacter baumannii in a mouse model of pneumonia” (Scientific Reports, 2021).
